Measured values as given in US7399775B2, “β-amyloid protein production/secretion inhibitor” (Daiichi Pharmaceutical Co., Ltd., priority 2001, dated 2008).
Read-outs that look alike come from different tables or passages of the source.

How the values were obtained:
[1] = test system: β-amyloid protein (Aβ) production/secretion in E35 cells (H4 cells transfected with APP751); test: Cell-based assay for inhibition of production or secretion of β-amyloid protein (sandwich ELISA of Aβ in culture medium); set-up: species or system human; conditions: 24 h with compound, Aβ in medium by sandwich ELISA, read-out: Activity (EC50 class, inhibition of Aβ secreted in culture medium)
Procedure: Cell-Based Assay for Screening of a Compound Which Inhibits Production or Secretion of β-Amyloid Protein
E35 cells which were established by transfecting APP751 gene which is a wild type human β-amyloid protein precursor into human glioma cells (H4 cells), were used to analyze inhibitory activity of a compound against β-amyloid production. The amount of β protein (Aβ) secreted in a culture medium was measured by the sandwich enzyme-linked imunosorbent assay.
E35 cells were seeded in Dulbecco's Modified Eagle's Medium containing 10% inactivated fetal bovine serum on 96-well plates and cultured in humidified air and 5% CO2 at 37° C. in a CO2 incubator. Twenty-four hours after seeding of the cells, a test compound dissolved in DMSO was added to the medium. The DMSO solution of the compound was prepared so as to give the final concentration of DMSO in the medium 0.05%. The cells were cultured for additional twenty-four hours, and then the cultured medium was collected. The medium collected was applied to a 96-well ELISA plate on which a monoclonal antibody 25-1, which recognized Aβ25-35, was immobilized, followed by the incubation at 4° C. for 16 to 20 hours. After washing with a phosphate buffer (pH 7.4), a biotinylated monoclonal antibody MA32-40, which recognizes Aβ1-8, was added to the plate, and the plate was incubated at 4° C. for 2 hours. Then alkaline phosphatase-conjugated streptavidin was added to the plate. Alkaline phosphatase activity was measured by a […] assay using BlouPhos (manufactured by KPL) as a substrate. An amount of Aβ in the medium was calculated using a calibration curve separately created. EC50 of the test compound was presented as the concentration that gives 50% inhibitory activity compared to the control cells which were not treated with the compound.

melting point [°C]	EC50 ([1]; Homo sapiens, 24 h) [nM]	EC50 [1] [nM]	SMILES
107 to 112	≤ 50		CC(CCC[S+](C)[O-])C(c1cc(F)ccc1F)S(=O)(=O)c1ccc(Cl)cc1 (stereo not drawn) [Example 45, 2-[1-[(4-Chlorophenyl)sulfonyl]-2-methyl-5-(methylsulfinyl)pentyl]-1,4-difluorobenzene]
115 to 117	50 to 500		CC(CCCS(C)(=O)=O)C(c1cc(F)ccc1F)S(=O)(=O)c1ccc(Cl)cc1 (stereo not drawn) [Example 46, 2-[1-[(4-Chlorophenyl)sulfonyl]-2-methyl-5-(methylsulfonyl)pentyl]-1,4-difluorobenzene]
142 to 144		≤ 50	CC(CCCS(C)(=O)=O)C(c1cc(F)ccc1F)S(=O)(=O)c1ccc(Cl)cc1 (stereo not drawn) [Example 47, 2-[1-[(4-Chlorophenyl)sulfonyl]-2-methyl-5-(methylsulfonyl)pentyl]-1,4-difluorobenzene]
157 to 160	≤ 50		O=S(=O)(c1ccc(Cl)cc1)C1(c2cc(F)ccc2F)CCOCC1 [Example 48, 4-[(4-Chlorophenyl)sulfonyl]-4-(2,5-difluorophenyl)tetrahydropyrane]
142 to 143	≤ 50		Cc1cccnc1C(c1cc(F)ccc1F)S(=O)(=O)c1ccc(Cl)cc1 (stereo not drawn) [Example 136, 2-[[(4-Chlorophenyl)sulfonyl]-(2,5-difluorophenyl)methyl]-3-methylpyridine]
130 to 131	50 to 500		O=S(=O)(c1ccc(Cl)cc1)C(c1cccnc1)c1cc(F)ccc1F (stereo not drawn) [Example 141, 3-[[(4-Chlorophenyl)sulfonyl]-(2,5-difluorophenyl)methyl]pyridine]
126 to 127	50 to 500		O=S(=O)(c1ccc(Cl)cc1)C(c1ccncc1)c1cc(F)ccc1F (stereo not drawn) [Example 142, 4-[[(4-Chlorophenyl)sulfonyl]-(2,5-difluorophenyl)methyl]pyridine]
150 to 152	50 to 500		O=S(=O)(c1ccc(Cl)cc1)C(c1cc(F)ccc1F)C1CCOCC1 (stereo not drawn) [Example 287, 4-[[(4-Chlorophenyl)sulfonyl](2,5-difluorophenyl)methyl]tetrahydropyran]
150 to 152	50 to 500		O=S(=O)(c1ccc(Cl)cc1)C(c1cc(F)ccc1F)C1CCSCC1 (stereo not drawn) [Example 288, 4-[[(4-Chlorophenyl)sulfonyl](2,5-difluorophenyl)methyl]tetrahydrothiopyran]
167 to 168	50 to 500		O=S(=O)(c1ccc(Cl)cc1)C(c1ccc(C2OCCO2)cn1)c1cc(F)ccc1F (stereo not drawn) [Example 330, 2-[(4-Chlorophenylsulfonyl)-(2,5-difluorophenyl)methyl]-5-(1,3-dioxolan-2-yl)pyridine]
151 to 152	50 to 500		O=S(=O)(c1ccc(Cl)cc1)C(c1ccc(CO)cn1)c1cc(F)ccc1F (stereo not drawn) [Example 331, 2-[(4-chlorophenylsulfonyl)(2,5-difluorophenyl)methyl]-5-(hydroxymethyl)pyridine]
158 to 160	50 to 500		O=C(O)CCc1ccc(C(c2cc(F)ccc2F)S(=O)(=O)c2ccc(Cl)cc2)nc1 (stereo not drawn) [Example 334, 3-[6-[(4-Chlorophenylsulfonyl)-(2,5-difluorophenyl)methyl]pyridin-3-yl]propionic Acid]
160 to 161	≤ 50		O=S(=O)(c1ccc(Cl)cc1)C(c1cc(F)ccc1F)c1ccncc1Cl (stereo not drawn) [Example 343, 3-Chloro-4-[(4-chlorophenylsulfonyl)-(2,5-difluorophenyl)methyl]pyridine]
180 to 181	≤ 50		O=S(=O)(c1ccc(Cl)cc1)C(c1cc(F)ccc1F)c1cc(N2CCOCC2)ncc1Cl (stereo not drawn) [Example 347, 4-[5-Chloro-4-[(4-chlorophenylsulfonyl)-(2,5-difluorophenyl)methyl]pyridin-2-yl]morpholine]
146 to 148	≤ 50		O=S(=O)(c1ccc(Cl)cc1)C(c1cc(F)ccc1F)c1cc(N2CCC(O)CC2)ncc1Cl (stereo not drawn) [Example 404, 5-Chloro-4-[(4-chlorophenylsulfonyl)-(2,5-difluorophenyl)methyl]-2-(4′-hydroxypiperidin-1′-yl)pyridine]
